Reference: patent US20230364070A1, “PYRROLO[3,2-C]PYRIDIN-4-ONE DERIVATIVES USEFUL IN THE TREATMENT OF CANCER” (Scorpion Therapeutics, Inc., priority 2020, published 2023)
pIC50: −log10 of the molar value.

Key:
Assay type in all cases: cell-based
[1] = target: T1, Ba/F3 cells with EGFR exon 20 NPG Ins D770_N771 (Homo sapiens, UniProt P00533, INS770NPG); experiment: EGFR activity: Ba/F3 cell viability (CellTiter-Glo, 72 h), EGFR exon 20 NPG insertion; conditions: EGFR exon 20 NPG Ins D770_N771, cell viability, read-out: BaF3 NPG IC50
T1 construct: expressed in transfected cells; host or cells: Ba/F3 (murine pro-B cells), retroviral transduction, puromycin selection, IL3-independent pool

Ba/F3 cells with EGFR WT = target: T2, Ba/F3 cells with EGFR WT (Homo sapiens, UniProt P00533); experiment: EGFR activity: Ba/F3 cell viability (CellTiter-Glo, 72 h), EGFR WT; conditions: read-out: BaF3 WT IC50
T2 construct: expressed in transfected cells; host or cells: Ba/F3 (murine pro-B cells), retroviral transduction, puromycin selection, maintained with EGF

[2] = target: T3, pEGFR in Ba/F3 cells expressing EGFR exon 20 NPG Ins D770_N771 (Homo sapiens, UniProt P00533, INS770NPG); experiment: Inhibitor activity on EGFR phosphorylation (pEGFR AlphaLISA, 2 h), Ba/F3 EGFR exon 20 NPG insertion; conditions: Ba/F3 EGFR exon 20 NPG Ins D770_N771
T3 construct: expressed in transfected cells; host or cells: Ba/F3 (murine pro-B cells), retroviral transduction, puromycin selection, IL3-independent pool
T3 sequence (P00533 with tags, fused parts or gaps INS770NPG): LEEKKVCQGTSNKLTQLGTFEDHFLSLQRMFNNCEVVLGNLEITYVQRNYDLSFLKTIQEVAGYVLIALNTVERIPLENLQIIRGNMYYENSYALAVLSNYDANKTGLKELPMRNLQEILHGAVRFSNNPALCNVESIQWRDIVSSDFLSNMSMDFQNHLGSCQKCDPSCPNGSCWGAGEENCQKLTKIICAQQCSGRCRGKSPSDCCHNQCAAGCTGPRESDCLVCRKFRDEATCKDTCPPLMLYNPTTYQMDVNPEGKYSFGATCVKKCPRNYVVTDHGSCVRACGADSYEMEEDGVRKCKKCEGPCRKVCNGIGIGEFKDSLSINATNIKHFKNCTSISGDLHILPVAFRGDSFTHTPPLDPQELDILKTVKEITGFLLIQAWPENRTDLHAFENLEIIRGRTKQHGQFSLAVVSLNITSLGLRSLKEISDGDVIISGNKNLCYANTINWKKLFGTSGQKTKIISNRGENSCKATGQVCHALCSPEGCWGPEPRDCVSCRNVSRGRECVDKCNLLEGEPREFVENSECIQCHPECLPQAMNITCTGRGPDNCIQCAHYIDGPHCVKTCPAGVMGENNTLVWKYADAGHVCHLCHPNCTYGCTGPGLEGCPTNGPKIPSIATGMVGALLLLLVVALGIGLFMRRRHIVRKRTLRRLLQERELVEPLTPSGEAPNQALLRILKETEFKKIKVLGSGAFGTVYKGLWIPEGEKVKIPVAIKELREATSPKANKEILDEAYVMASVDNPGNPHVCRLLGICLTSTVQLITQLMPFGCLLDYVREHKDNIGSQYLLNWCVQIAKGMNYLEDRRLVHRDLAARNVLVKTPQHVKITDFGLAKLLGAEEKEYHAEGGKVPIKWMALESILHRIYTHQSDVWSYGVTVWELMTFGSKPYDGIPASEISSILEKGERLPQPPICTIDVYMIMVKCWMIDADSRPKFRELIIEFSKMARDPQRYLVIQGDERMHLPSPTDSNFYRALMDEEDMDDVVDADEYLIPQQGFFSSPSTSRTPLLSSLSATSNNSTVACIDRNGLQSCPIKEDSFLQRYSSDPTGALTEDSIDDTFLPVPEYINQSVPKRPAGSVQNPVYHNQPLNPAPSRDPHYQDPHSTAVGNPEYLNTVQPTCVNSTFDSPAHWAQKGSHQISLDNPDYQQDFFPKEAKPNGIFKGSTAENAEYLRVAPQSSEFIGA

T1 sequence (P00533 with tags, fused parts or gaps INS770NPG): as above
T2 sequence (P00533 25-1210): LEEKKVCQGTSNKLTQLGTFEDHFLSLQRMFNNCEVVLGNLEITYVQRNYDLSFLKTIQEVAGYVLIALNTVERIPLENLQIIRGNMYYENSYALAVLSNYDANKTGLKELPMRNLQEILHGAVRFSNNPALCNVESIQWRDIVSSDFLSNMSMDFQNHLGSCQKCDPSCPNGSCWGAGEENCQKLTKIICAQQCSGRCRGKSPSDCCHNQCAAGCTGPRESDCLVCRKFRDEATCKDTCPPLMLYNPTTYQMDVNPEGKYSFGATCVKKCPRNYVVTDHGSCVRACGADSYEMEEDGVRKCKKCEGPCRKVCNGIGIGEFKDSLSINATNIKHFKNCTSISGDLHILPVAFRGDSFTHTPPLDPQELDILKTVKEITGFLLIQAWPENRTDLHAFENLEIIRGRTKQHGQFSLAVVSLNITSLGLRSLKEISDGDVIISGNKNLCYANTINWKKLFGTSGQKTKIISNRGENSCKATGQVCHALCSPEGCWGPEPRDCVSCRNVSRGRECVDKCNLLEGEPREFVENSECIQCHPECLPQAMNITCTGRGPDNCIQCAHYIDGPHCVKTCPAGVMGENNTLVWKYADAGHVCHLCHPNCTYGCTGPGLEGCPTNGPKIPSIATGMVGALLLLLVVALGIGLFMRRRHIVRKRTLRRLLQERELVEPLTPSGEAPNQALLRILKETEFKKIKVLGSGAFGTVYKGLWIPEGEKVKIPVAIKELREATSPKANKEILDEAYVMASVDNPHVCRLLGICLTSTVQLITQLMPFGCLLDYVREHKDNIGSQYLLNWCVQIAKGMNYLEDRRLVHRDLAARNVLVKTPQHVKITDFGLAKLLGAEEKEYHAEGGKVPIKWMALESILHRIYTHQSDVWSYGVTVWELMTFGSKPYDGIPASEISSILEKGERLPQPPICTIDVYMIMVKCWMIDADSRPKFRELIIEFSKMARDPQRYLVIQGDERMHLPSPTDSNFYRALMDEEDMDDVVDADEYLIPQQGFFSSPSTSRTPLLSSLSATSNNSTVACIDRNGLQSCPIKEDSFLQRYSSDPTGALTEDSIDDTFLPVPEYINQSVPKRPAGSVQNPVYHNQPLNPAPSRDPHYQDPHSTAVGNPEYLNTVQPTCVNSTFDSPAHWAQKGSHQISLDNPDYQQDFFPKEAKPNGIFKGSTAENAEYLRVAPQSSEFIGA

Row | Compound | pIC50 [1] | pIC50 (Ba/F3 cells with EGFR WT) | pIC50 [2]
1 | COc1c(F)cccc1Nc1c(-c2ccncc2OCC2CCc3nccn32)[nH]c2c1C(=O)NCC2 (centres unmarked) [Compound 128, 2-(3-((6,7-dihydro-5H-pyrrolo[1,2-a]imidazol-5-yl)methoxy)pyridin-4-yl)-3-((3-fluoro-2-methoxyphenyl)amino)-1,5,6,7-tetrahydro-4H-pyrrolo[3,2-c]pyridin-4-one] | < 6.00 | < 6.00 | < 6.00
2 | COc1c(F)cccc1Nc1c(-c2ccncc2OCc2nnc3n2CCC3)[nH]c2c1C(=O)NCC2 [Compound 131, 3-[(3-fluoro-2-methoxyphenyl)amino]-2-(3-[5H,6H,7H-pyrrolo[2,1-c][1,2,4]triazol-3-ylmethoxy]pyridin-4-yl)-1H,5H,6H,7H-pyrrolo[3,2-c]pyridin-4-one] | < 6.00 | < 6.00 | < 6.00
3 | COc1c(Cl)cccc1Nc1c(-c2ccncc2OC[C@@H]2CCCN2C(C)=O)[nH]c2c1C(=O)NCC2 [Compound 141a, (S)-2-(3-((1-acetylpyrrolidin-2-yl)methoxy)pyridin-4-yl)-3-((3-chloro-2-methoxyphenyl)amino)-1,5,6,7-tetrahydro-4H-pyrrolo[3,2-c]pyridin-4-one] | < 6.00 | < 6.00 | 6.00 to 7.00
4 | COc1c(Cl)cccc1Nc1c(-c2ccncc2OC[C@@H]2CN(C(C)=O)CCO2)[nH]c2c1C(=O)NCC2 [compound 195, 2-(3-{[(2S)-4-acetylmorpholin-2-yl]methoxy}pyridin-4-yl)-3-[(3-chloro-2-methoxyphenyl)amino]-1H,5H,6H,7H-pyrrolo[3,2-c]pyridin-4-one] |  |  | > 7.00
5 | C=CC(=O)N1CCC[C@H]1COc1cnccc1-c1[nH]c2c(c1Nc1cccc(F)c1OC)C(=O)NCC2 [compound 212, 3-[(3-fluoro-2-methoxyphenyl)amino]-2-(3-{[(2S)-1-(prop-2-enoyl)pyrrolidin-2-yl]methoxy}pyridine-4-yl)-1H,5H,6H,7H-pyrrolo[3,2-c]pyridin-4-one] |  |  | > 7.00
6 | C=CC(=O)N1CCC[C@@]1(C)C#Cc1cnccc1-c1[nH]c2c(c1Nc1cccc(F)c1OC)C(=O)NCC2 [compound 246, 3-[(3-fluoro-2-methoxyphenyl)amino]-2-(3-{2-[(2S)-2-methyl-1-(prop-2-enoyl)pyrrolidin-2-yl]ethynyl}pyridin-4-yl)-1H,5H,6H,7H-pyrrolo[3,2-c]pyridin-4-one] |  |  | > 7.00
7 | COc1c(Cl)cccc1Nc1c(-c2ccncc2OCc2ccco2)[nH]c2c1C(=O)NCC2 [compound 471, 3-[(3-chloro-2-methoxyphenyl)amino]-2-[3-(furan-2-ylmethoxy)pyridin-4-yl]-1H,5H,6H,7H-pyrrolo[3,2-c]pyridin-4-one] |  |  | < 6.00
8 | COc1c(F)cccc1Nc1c(-c2ccncc2Oc2cnn(C)c2)[nH]c2c1C(=O)NCC2 [compound 484, 3-[(3-fluoro-2-methoxyphenyl)amino]-2-[3-[(1-methylpyrazol-4-yl)oxy]pyridin-4-yl]-1H,5H,6H,7H-pyrrolo[3,2-c]pyridin-4-one] |  |  | < 6.00
9 | COc1c(Cl)cccc1Nc1c(-c2ccncc2C#C[C@H]2COCCN2C)[nH]c2c1C(=O)NCC2 [compound 494, 3-[(3-chloro-2-methoxyphenyl)amino]-2-(3-[2-[(3S)-4-methylmorpholin-3-yl]ethynyl]pyridin-4-yl)-1H,5H,6H,7H-pyrrolo[3,2-c]pyridin-4-one] |  |  | > 7.00
10 | C=CC(=O)N1CCOC[C@H]1C#Cc1cnccc1-c1[nH]c2c(c1Nc1cccc(Cl)c1OC)C(=O)NCC2 [compound 514, 3-[(3-chloro-2-methoxyphenyl)amino]-2-(3-{2-[(3R)-4-(prop-2-enoyl)morpholin-3-yl]ethynyl}pyridin-4-yl)-1H,5H,6H,7H-pyrrolo[3,2-c]pyridin-4-one] |  |  | > 7.00
11 | C=CC(=O)N1CCOC[C@@H]1C#Cc1cnccc1-c1[nH]c2c(c1Nc1cccc(Cl)c1OC)C(=O)NCC2 [compound 515, 3-[(3-chloro-2-methoxyphenyl)amino]-2-(3-{2-[(3S)-4-(prop-2-enoyl)morpholin-3-yl]ethynyl}pyridine-4-yl)-1H,5H,6H,7H-pyrrolo[3,2-c]pyridin-4-one] |  |  | > 7.00
